These results are taken from US20050197371A1, “Urea derivatives as PDGFR modulators” (Ambit Biosciences Corporation, priority 2003, published 2005).

One test addresses T1, PDGFRB(DKIN) (PDGFR-β) (Homo sapiens, UniProt P09619).
T1 construct: PDGFRB(DKIN)
The test is described as follows: Phage-display competitive binding assay, PDGFRB(DKIN). On the procedure:
The term “ND” represents non-determined values.
(§1) Briefly, T7 phage displaying human PDGFR-β were incubated with an affinity matrix coated with known PDGFR-β inhibitor in the presence of various concentrations of the soluble competitor molecules.

Test [1] deals with T2, PDGFRB(JMminus) (PDGFR-β) (Homo sapiens, UniProt P09619).
T2 construct: PDGFRB(JMminus)
Put plainly: Phage-display competitive binding assay, PDGFRB(JMminus). On the procedure:
as §1

Another test has as its target T3, PDGFRB(JMplus) (PDGFR-β) (Homo sapiens, UniProt P09619).
T3 construct: PDGFRB(JMplus)
Put plainly: Phage-display competitive binding assay, PDGFRB(JMplus). On the procedure:
as §1

[2] abbreviates: T7 phage displaying human PDGFR-β, DKIN construct; read-out: Binding Assay: PDGFRB(DKIN).

Structures are written as SMILES. Read-outs that look alike come from different tables or passages of the source.

T3 sequence (P09619 600-962 limits assumed): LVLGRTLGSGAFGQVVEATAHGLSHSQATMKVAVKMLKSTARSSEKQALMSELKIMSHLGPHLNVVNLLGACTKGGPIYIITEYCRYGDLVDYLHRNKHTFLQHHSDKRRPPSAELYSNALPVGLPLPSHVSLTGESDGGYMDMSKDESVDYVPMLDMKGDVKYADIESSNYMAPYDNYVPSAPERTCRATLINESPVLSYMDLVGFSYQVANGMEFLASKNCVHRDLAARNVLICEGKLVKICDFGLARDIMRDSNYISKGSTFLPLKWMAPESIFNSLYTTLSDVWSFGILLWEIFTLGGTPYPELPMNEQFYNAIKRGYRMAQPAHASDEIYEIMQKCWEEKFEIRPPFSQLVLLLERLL
T2 sequence (P09619 600-962 limits assumed): as above

For `CC(C)(C)c1cc(NC(=O)Nc2ccc(NC(=O)c3ncccc3O)cc2)no1` [Compound N134], the Kd at PDGFRB(DKIN) (PDGFR-β) (read-out: Binding Assay: PDGFRB(DKIN); T7 phage displaying human PDGFR-β, DKIN construct) is < 100 nM; in test [1], < 100 nM; on PDGFRB(JMplus) (PDGFR-β), < 100 nM.

In the case of `COc1cc(NC(=O)c2cn3nc(Cl)ccc3n2)ccc1NC(=O)Nc1cc(C(C)(C)C)on1` [Compound N171], the Kd at PDGFRB(DKIN) (PDGFR-β) (setting [2]) lay in the range of 100 to 1000 nM.

As for `COc1cc(NC(=O)CCC(=O)N2CCNC(=O)CC2)ccc1NC(=O)Nc1cc(C(C)(C)C)on1` [Compound N172], the Kd at PDGFRB(DKIN) (PDGFR-β) (setting [2]) was 1000 to 10000 nM.

For the compound `Cc1nc(-c2ccc(C(=O)Nc3ccc(NC(=O)Nc4cc(C(C)(C)C)on4)cc3)s2)cs1` [Compound N173], the Kd on PDGFRB(DKIN) (PDGFR-β) (setting [2]) is < 100 nM.

As for `CC(C)(C)c1cc(NC(=O)Nc2ccc(NC(=O)c3cc(Cl)nnc3Cl)cc2)no1` [Compound N174], the Kd on PDGFRB(DKIN) (PDGFR-β) (setting [2]) was in the range of 100 to 1000 nM.

Consider `CC(C)(C)c1cc(NC(=O)Nc2ccc(NC(=O)c3cc(O)c4cccc(O)c4n3)cc2)no1` [Compound N176], for which the Kd on PDGFRB(DKIN) (PDGFR-β) (setting [2]) is 1000 to 10000 nM.

`COc1ccc(C(=O)c2c[nH]c(C(=O)Nc3ccc(NC(=O)Nc4cc(C(C)(C)C)on4)cc3)c2)cc1` [Compound N177]: the Kd on PDGFRB(DKIN) (PDGFR-β) (setting [2]) was in the range of 1000 to 10000 nM.

For the compound `Cc1ccc(-c2nc(C(=O)Nc3ccc(NC(=O)Nc4cc(C(C)(C)C)on4)cc3)cs2)cc1` [Compound N178], the Kd at PDGFRB(DKIN) (PDGFR-β) (setting [2]) was < 100 nM.

Take `CC(C)(C)c1cc(NC(=O)Nc2ccc(NC(=O)c3nnsc3Sc3ccc(C(F)(F)F)cc3)cc2)no1` [Compound N179]: on PDGFRB(DKIN) (PDGFR-β) (setting [2]), the Kd fell in the range of 100 to 1000 nM.

As for `CC(C)(C)c1cc(NC(=O)Nc2ccc(NC(=O)c3csc(Cc4cccc(C(F)(F)F)c4)n3)cc2)no1` [Compound N180], at PDGFRB(DKIN) (PDGFR-β) (setting [2]), the Kd lay within 100 to 1000 nM.

In the case of `Cc1nc(-c2ccccc2)sc1C(=O)Nc1ccc(NC(=O)Nc2cc(C(C)(C)C)on2)cc1` [Compound N181], the Kd at PDGFRB(DKIN) (PDGFR-β) (setting [2]) is 100 to 1000 nM.

Take `CC(C)c1nnsc1C(=O)Nc1ccc(NC(=O)Nc2cc(C(C)(C)C)on2)cc1` [Compound N182]: at PDGFRB(DKIN) (PDGFR-β) (setting [2]), the Kd was 1000 to 10000 nM.

In the case of `Cc1nc(-c2ccc(Cl)cc2)sc1C(=O)Nc1ccc(NC(=O)Nc2cc(C(C)(C)C)on2)cc1` [Compound N184], the Kd at PDGFRB(DKIN) (PDGFR-β) (setting [2]) was in the range of 100 to 1000 nM.

In the case of `CC(C)(C)c1cc(NC(=O)Nc2ccc(NC(=O)c3ccccn3)cc2)no1` [Compound N188], the Kd at PDGFRB(DKIN) (PDGFR-β) (setting [2]) was < 100 nM; in test [1] (T7 phage displaying human PDGFR-β, JMminus construct, read-out: Binding Assay: PDGFRB(JMminus)), < 100 nM; on PDGFRB(JMplus) (PDGFR-β) (T7 phage displaying human PDGFR-β, JMplus construct, read-out: Binding Assay: PDGFRB(JMplus)), < 100 nM.

As to `COc1cc2nc(Cl)nc(Nc3ccc(NC(=O)Nc4cc(C(C)(C)C)on4)cc3)c2cc1OC` [Compound O1, 1-(4-(2-chloro-6,7-dimethoxyquinazolin-4-ylamino)phenyl)-3-(5-tert-butylisoxazol-3-yl)urea], the Kd at PDGFRB(DKIN) (PDGFR-β) (setting [2]) was in the range of 100 to 1000 nM.

Turning to `Cc1cnc(C(=O)Nc2ccc(NC(=O)Nc3cc(C(C)(C)C)on3)cc2)cn1` [Compound O2], the Kd at PDGFRB(DKIN) (PDGFR-β) (setting [2]) was < 100 nM.

Regarding `CC(C)(C)c1cc(NC(=O)Nc2ccc(Nc3ncnc4[nH]cnc34)cc2)no1` [Compound O3], the Kd on PDGFRB(DKIN) (PDGFR-β) (setting [2]) was < 100 nM.

Turning to `CC(C)(C)c1cc(NC(=O)Nc2ccc(Nc3nc(Cl)nc4[nH]cnc34)cc2)no1` [Compound O4], the Kd at PDGFRB(DKIN) (PDGFR-β) (setting [2]) is < 100 nM.

On to `COc1cc2ncnc(Nc3ccc(NC(=O)Nc4cc(C(C)(C)C)on4)cc3)c2cc1OC` [Compound O5], for which the Kd on PDGFRB(DKIN) (PDGFR-β) (setting [2]) is < 100 nM.

For `CC(C)(C)c1cc(NC(=O)Nc2ccc(Nc3nc(N)nc4[nH]cnc34)cc2)no1` [Compound O6], on PDGFRB(DKIN) (PDGFR-β) (setting [2]), the Kd is < 100 nM.

For the compound `CC(C)(C)c1cc(NC(=O)Nc2ccc(Nc3ccnc(N)n3)cc2)no1` [Compound O7], the Kd at PDGFRB(DKIN) (PDGFR-β) (setting [2]) was in the range of 100 to 1000 nM.

For the compound `COC(=O)c1cccc(Sc2ncc(NC(=O)Nc3cc(C(C)(C)C)on3)s2)c1` [Compound O8], at PDGFRB(DKIN) (PDGFR-β) (setting [2]), the Kd was 100 to 1000 nM.

For `Cc1ccc(CNc2ccc(NC(=O)Nc3cc(C(C)(C)C)on3)cc2)cc1` [Compound O9], the Kd on PDGFRB(DKIN) (PDGFR-β) (setting [2]) fell in the range of 100 to 1000 nM.

Turning to `Cc1nc(N)cc(Nc2ccc(NC(=O)Nc3cc(C(C)(C)C)on3)cc2)n1` [Compound O10], on PDGFRB(DKIN) (PDGFR-β) (setting [2]), the Kd was in the range of 100 to 1000 nM.

For the compound `COc1ccc(-c2noc(-c3ccc(NC(=O)Nc4cc(C(C)(C)C)on4)cc3)n2)c2ccccc12` [Compound P3], the Kd on PDGFRB(DKIN) (PDGFR-β) (setting [2]) lay within 1000 to 10000 nM.

Regarding `Cc1ccccc1-c1noc(-c2ccc(NC(=O)Nc3cc(C(C)(C)C)on3)cc2)n1` [Compound P4], the Kd on PDGFRB(DKIN) (PDGFR-β) (setting [2]) was < 100 nM.

Turning to `CC(C)(C)c1cc(NC(=O)Nc2ccc(-c3nc(-c4cccc5ccccc45)no3)cc2)no1` [Compound P5], the Kd at PDGFRB(DKIN) (PDGFR-β) (setting [2]) was 100 to 1000 nM.

For the compound `CC(C)(C)c1cc(NC(=O)Nc2ccc(-c3nc(-c4ccc(Cl)cc4)no3)cc2)no1` [Compound P7], the Kd at PDGFRB(DKIN) (PDGFR-β) (setting [2]) lay in the range of 100 to 1000 nM.

For the compound `CC(C)(C)c1cc(NC(=O)Nc2ccc(-c3nc(-c4ccc(C(F)(F)F)cc4)no3)cc2)no1` [Compound P8], the Kd on PDGFRB(DKIN) (PDGFR-β) (setting [2]) was > 10000 nM.

Regarding `Cc1noc(-c2ccc(NC(=O)Nc3cc(C(C)(C)C)on3)cc2)n1` [Compound P9], at PDGFRB(DKIN) (PDGFR-β) (setting [2]), the Kd is < 100 nM.

Turning to `CC(C)(C)c1cc(NC(=O)Nc2ccc(NS(=O)(=O)c3ccccc3)cc2)no1` [Compound V1], the Kd on PDGFRB(DKIN) (PDGFR-β) (setting [2]) lay in the range of 1000 to 10000 nM.

With `Cc1ccc(S(=O)(=O)Nc2ccc(NC(=O)Nc3cc(C(C)(C)C)on3)cc2)cc1` [Compound V2], the Kd at PDGFRB(DKIN) (PDGFR-β) (setting [2]) is 1000 to 10000 nM.

Take `CC(C)(C)c1cc(NC(=O)Nc2ccc(S(=O)(=O)Nc3ncccn3)cc2)no1` [Compound V3]: the Kd at PDGFRB(DKIN) (PDGFR-β) (setting [2]) was > 10000 nM.

For `CC(=O)NS(=O)(=O)c1ccc(NC(=O)Nc2cc(C(C)(C)C)on2)cc1` [Compound V4], the Kd on PDGFRB(DKIN) (PDGFR-β) (setting [2]) was > 10000 nM.

Take `Cc1ccc(NC(=O)Nc2cc(C(F)(F)F)cc(Cl)n2)cc1` [Compound W1]: the Kd at PDGFRB(DKIN) (PDGFR-β) (setting [2]) was in the range of 100 to 1000 nM.

On to `O=C(Nc1ccc(Cl)cc1)Nc1ccno1` [Compound Z15], for which the Kd at PDGFRB(DKIN) (PDGFR-β) (setting [2]) fell in the range of 1000 to 10000 nM.

Consider `CC(C)CCOC(=O)c1nnsc1NC(=O)Nc1ccc(Br)cc1` [Compound Z36], for which the Kd on PDGFRB(DKIN) (PDGFR-β) (setting [2]) was > 10000 nM.

For the compound `Cc1c(NC(=O)Nc2cc(C(C)(C)C)on2)c(=O)n(-c2ccccc2)n1C` [Compound Z45], the Kd at PDGFRB(DKIN) (PDGFR-β) (setting [2]) is > 10000 nM.

For the compound `Cn1c(SCC(=O)Nc2ccc(NC(=O)Nc3cc(C(C)(C)C)on3)cc2)nnc1-c1cccn(Cc2ccccc2)c1=O` [Compound Z47], the Kd at PDGFRB(DKIN) (PDGFR-β) (setting [2]) is 100 to 1000 nM.

As to `O=C(Nc1ccc(Cl)cc1)Nc1ccc(-n2nc(Br)c(Br)c2Br)cc1` [Compound Z49], on PDGFRB(DKIN) (PDGFR-β) (setting [2]), the Kd was < 100 nM.

As for `C=C/C(=C\C=C\Cl)NC(=O)Nc1ccc(C(=O)OCCOC)cc1` [Compound Z54], at PDGFRB(DKIN) (PDGFR-β) (setting [2]), the Kd lay in the range of 1000 to 10000 nM.

Turning to `NC(=O)c1c(NC(=O)Nc2ccc(Cl)c(Cl)c2)sc2c1CCCC2` [Compound Z56], the Kd at PDGFRB(DKIN) (PDGFR-β) (setting [2]) was > 10000 nM.

With `Cc1sc(NC(=O)Nc2ccc(Cl)cc2)c(C(N)=O)c1C` [Compound Z58], at PDGFRB(DKIN) (PDGFR-β) (setting [2]), the Kd was > 10000 nM.

For `O=C(Nc1ccccc1)Nc1ccc(-n2cnc(Cl)c2Cl)cc1` [Compound Z65], at PDGFRB(DKIN) (PDGFR-β) (setting [2]), the Kd lay within 100 to 1000 nM.

Take `COc1ccc(NC(=O)Nc2cc(C(F)(F)F)cc(Cl)n2)cc1` [Compound Z71]: on PDGFRB(DKIN) (PDGFR-β) (setting [2]), the Kd lay within 100 to 1000 nM.

`O=C(Nc1ccc(Br)cc1)Nc1cc(C(F)(F)F)cc(Cl)n1` [Compound Z72]: the Kd on PDGFRB(DKIN) (PDGFR-β) (setting [2]) was > 10000 nM.

With `O=C(Nc1ccc(Cl)cc1)Nc1cc(C(F)(F)F)cc(Cl)n1` [Compound Z76], the Kd at PDGFRB(DKIN) (PDGFR-β) (setting [2]) was > 10000 nM.
